≈ marks a conversion by molar mass, not a printed value.
Columns and labels:
Assay type in all cases: functional
Streptococcus pneumoniae [1] = experiment: Antibacterial activity against macrolide-, quinolone-susceptible and penicillin-intermediate Streptococcus pneumoniae HMC 99 after 50 passages by broth microdilution method
Streptococcus pneumoniae [2] = experiment: Antibacterial activity against penicillin-, macrolide-susceptible and quinolone-resistant Streptococcus pneumoniae HMC 1074 harboring S81F, E85K mutation in quinolone-resistant determining regions of GyrA gene, S79F mutation in QRDR of ParC gene and I460V mutation in QRDR of ParE gene after 27 passages with gemifloxacin measured after 10 daily antibiotic-free subculturing by multi-step resistance selection technique
Streptococcus pneumoniae [3] = experiment: Antibacterial activity against Streptococcus pneumoniae HMC 5041 harboring S81F and S79F mutation in quinolone-resistant determining regions of GyrA and ParC genes respectively by agar dilution method
Streptococcus pneumoniae [4] = experiment: (§1) Antibacterial activity against macrolide-, quinolone-susceptible and penicillin-intermediate Streptococcus pneumoniae HMC 100 harboring S81Y mutation in quinolone-resistant determining regions of GyrA gene after 22 passages with moxifloxacin measured after 10 daily antibiotic-free subculturing by multi-step resistance selection technique
Streptococcus pneumoniae [5] = experiment: (§2) Antibacterial activity against Streptococcus pneumoniae HMC 1066 harboring S81F mutation in quinolone-resistant determining regions of GyrA gene, S79F mutation in QRDR of ParC gene and I460V mutation in QRDR of ParE gene by agar dilution method
Streptococcus pneumoniae [6] = experiment: Antibacterial activity against azithromycin-resistant Streptococcus pneumoniae […] by agar dilution method
Streptococcus pneumoniae [7] = experiment: Antibacterial activity against Streptococcus pneumoniae HMC 1072 harboring S81F mutation in quinolone-resistant determining regions of GyrA gene, S79Y mutation in QRDR of ParC gene and I460V mutation in QRDR of ParE gene by agar dilution method
Streptococcus pneumoniae [8] = experiment: Antibacterial activity against penicillin-resistant Streptococcus pneumoniae […] by agar dilution method
Streptococcus pneumoniae [9] = experiment: Antibacterial activity against penicillin-resistant and quinolone-susceptible Streptococcus pneumoniae HMC 3583 expressing mefA and harboring S81F mutation in quinolone-resistant determining regions of GyrA gene, D83N mutation in QRDR of ParC gene and I460V mutation in QRDR of ParE gene after 49 passages with DC-159a measured after 10 daily antibiotic-free subculturing by multi-step resistance selection technique
Streptococcus pneumoniae [10] = experiment: Antibacterial activity against Streptococcus pneumoniae HMC 2538 harboring S81Y mutation in quinolone-resistant determining regions of GyrA gene, S79F, K137N mutation in QRDR of ParC gene and I460V mutation in QRDR of ParE gene showing efflux to ciprofloxacin, levofloxacin, gatifloxacin by agar dilution method
Streptococcus pneumoniae [11] = experiment: Antibacterial activity against quinolone-susceptible and penicillin-intermediate Streptococcus pneumoniae HMC 5048 expressing mefA after 50 passages by broth microdilution method
Streptococcus pneumoniae [12] = experiment: Antibacterial activity against macrolide-, quinolone-susceptible and penicillin-intermediate Streptococcus pneumoniae HMC 99 by broth microdilution method
Streptococcus pneumoniae [13] = experiment: Antibacterial activity against Streptococcus pneumoniae HMC 1062 harboring S81F mutation in quinolone-resistant determining regions of GyrA gene, S79F mutation in QRDR of ParC gene and I460V mutation in QRDR of ParE gene by agar dilution method
Streptococcus pneumoniae [14] = experiment: Antibacterial activity against penicillin-susceptible Streptococcus pneumoniae ATCC 49619 by agar dilution method
Streptococcus pneumoniae [15] = experiment: as §1, with “99” for “100”, “S81Y and S79Y” for “S81Y”, “and ParC genes respectively” for “gene”, “41” for “22”
Streptococcus pneumoniae [16] = experiment: Antibacterial activity against penicillin-resistant and quinolone-susceptible Streptococcus pneumoniae HMC 228 expressing ermB by broth microdilution method
Streptococcus pneumoniae [17] = experiment: Antibacterial activity against penicillin-, macrolide- and quinolone-susceptible Streptococcus pneumoniae HMC 63 harboring S81F mutation in quinolone-resistant determining regions of GyrA gene, D83Y mutation in QRDR of ParC gene and I460V mutation in QRDR of ParE gene after 34 passages with gemifloxacin measured after 10 daily antibiotic-free subculturing by multi-step resistance selection technique
Streptococcus pneumoniae [18] = experiment: Antibacterial activity against Streptococcus pneumoniae HMC 1147 harboring S81F mutation in quinolone-resistant determining regions of GyrA gene, S79F mutation in QRDR of ParC gene and I460V mutation in QRDR of ParE gene showing efflux to gemifloxacin by agar dilution method
Streptococcus pneumoniae [19] = experiment: Antibacterial activity against Streptococcus pneumoniae HMC 1068 harboring E85K mutation in quinolone-resistant determining regions of GyrA gene, S79Y, K137N mutation in QRDR of ParC gene and I460V mutation in QRDR of ParE gene showing efflux to ciprofloxacin, levofloxacin by agar dilution method
Streptococcus pneumoniae [20] = experiment: Antibacterial activity against Streptococcus pneumoniae HMC 2527 harboring S81Y mutation in quinolone-resistant determining regions of GyrA gene, S79F, K137N mutation in QRDR of ParC gene and I460V mutation in QRDR of ParE gene by agar dilution method
Streptococcus pneumoniae [21] = experiment: Antibacterial activity against penicillin- and quinolone-susceptible Streptococcus pneumoniae HMC 5055 expressing mefA by broth microdilution method
Streptococcus pneumoniae [22] = experiment: Antibacterial activity against Streptococcus pneumoniae HMC 3041 after 50 passages by broth microdilution method
Streptococcus pneumoniae [23] = experiment: Antibacterial activity against penicillin-, quinolone-resistant and macrolide-susceptible Streptococcus pneumoniae HMC 1058 harboring S79F, K137N mutation in quinolone-resistant determining regions of ParC gene and 460V mutation in QRDR of ParE gene by broth microdilution method
Streptococcus pneumoniae [24] = experiment: Antibacterial activity against Streptococcus pneumoniae HMC 1151 harboring D83N, K137N mutation in quinolone-resistant determining regions of ParC gene and I460V mutation in QRDR of ParE gene showing efflux to ciprofloxacin, gemifloxacin by agar dilution method
Streptococcus pneumoniae [25] = experiment: Antibacterial activity against azithromycin-susceptible Streptococcus pneumoniae ATCC 49619 by agar dilution method
Streptococcus pneumoniae [26] = experiment: as §2, with “against penicillin-, macrolide-susceptible and quinolone-resistant” for “against”, “1074” for “1066”, “broth microdilution” for “agar dilution”
Streptococcus pneumoniae [27] = experiment: Antibacterial activity against quinolone-susceptible and penicillin-intermediate Streptococcus pneumoniae HMC 441 expressing ermB by broth microdilution method
Streptococcus pneumoniae [28] = experiment: Antibacterial activity against Streptococcus pneumoniae HMC 1060 harboring S81F mutation in quinolone-resistant determining regions of GyrA gene, S79F, K137N mutation in QRDR of ParC gene and I460V mutation in QRDR of ParE gene by agar dilution method
Streptococcus pneumoniae [29] = experiment: Antibacterial activity against Streptococcus pneumoniae HMC 1150 harboring S81C mutation in quinolone-resistant determining regions of GyrA gene, S79F mutation in QRDR of ParC gene and I460V mutation in QRDR of ParE gene by agar dilution method
Streptococcus pneumoniae [30] = experiment: Antibacterial activity against quinolone-susceptible Streptococcus pneumoniae ATCC 49619 by agar dilution method
Streptococcus pneumoniae [31] = experiment: as §1, with “S79Y” for “S81Y”, “ParC” for “GyrA”, “34” for “22”, “gemifloxacin” for “moxifloxacin”
Streptococcus pneumoniae [32] = experiment: Antibacterial activity against Streptococcus pneumoniae HMC 1074 harboring S81F mutation in quinolone-resistant determining regions of GyrA gene, S79F mutation in QRDR of ParC gene and I460V mutation in QRDR of ParE gene by agar dilution method
Streptococcus pneumoniae [33] = experiment: Antibacterial activity against penicillin- and quinolone-susceptible Streptococcus pneumoniae HMC 5055 expressing mefA after 50 passages by broth microdilution method

| Structure (SMILES) | MIC (Streptococcus pneumoniae [1]) [µg/mL] | MIC (Streptococcus pneumoniae [2]) [µg/mL] | MIC (Streptococcus pneumoniae [3]) [µg/mL] | MIC (Streptococcus pneumoniae [4]) [µg/mL] | MIC (Streptococcus pneumoniae [5]) [µg/mL] | MIC50 (Streptococcus pneumoniae [6]) [µg/mL] | MIC90 (Streptococcus pneumoniae [6]) [µg/mL] | MIC (Streptococcus pneumoniae [7]) [µg/mL] | MIC50 (Streptococcus pneumoniae [8]) [µg/mL] | MIC90 (Streptococcus pneumoniae [8]) [µg/mL] | MIC (Streptococcus pneumoniae [9]) [µg/mL] | MIC (Streptococcus pneumoniae [10]) [µg/mL] | MIC (Streptococcus pneumoniae [11]) [µg/mL] | MIC (Streptococcus pneumoniae [12]) [µg/mL] | MIC (Streptococcus pneumoniae [13]) [µg/mL] | MIC50 (Streptococcus pneumoniae [14]) [µg/mL] | MIC90 (Streptococcus pneumoniae [14]) [µg/mL] | MIC (Streptococcus pneumoniae [15]) [µg/mL] | MIC (Streptococcus pneumoniae [16]) [µg/mL] | MIC (Streptococcus pneumoniae [17]) [µg/mL] | also measured |
| --- | --- | --- | --- | --- | --- | --- | --- | --- | --- | --- | --- | --- | --- | --- | --- | --- | --- | --- | --- | --- | --- |
| CO/N=C1\CN(c2nc3c(cc2F)c(=O)c(C(=O)O)cn3C2CC2)CC1CN (stereo unspecified) [GEMIFLOXACIN] | 0.125 (≈ 0.321 µM) | 2 (≈ 5.14 µM) | 0.5 (≈ 1.28 µM) | 0.25 (≈ 0.642 µM) | 0.25 (≈ 0.642 µM) | 0.03 (≈ 0.077 µM) | 0.06 (≈ 0.154 µM) | 0.5 (≈ 1.28 µM) | 0.03 (≈ 0.077 µM) | 0.25 (≈ 0.642 µM) | 4 (≈ 10.3 µM) | 0.25 (≈ 0.642 µM) | 0.125 (≈ 0.321 µM) | 0.06 (≈ 0.154 µM) | 1 (≈ 2.57 µM) | 0.03 (≈ 0.077 µM) | 0.12 (≈ 0.308 µM) | 1 (≈ 2.57 µM) | 0.06 (≈ 0.154 µM) | 0.5 (≈ 1.28 µM) | MIC (Streptococcus pneumoniae [18]): 1 µg/mL (≈ 2.57 µM); MIC (Streptococcus pneumoniae [19]): 0.5 µg/mL (≈ 1.28 µM); MIC (Streptococcus pneumoniae [20]): 0.25 µg/mL (≈ 0.642 µM); MIC (Streptococcus pneumoniae [21]): 0.03 µg/mL (≈ 0.077 µM); MIC (Streptococcus pneumoniae [22]): 0.03 µg/mL (≈ 0.077 µM); MIC (Streptococcus pneumoniae [23]): 0.12 µg/mL (≈ 0.308 µM); MIC (Streptococcus pneumoniae [24]): 0.25 µg/mL (≈ 0.642 µM); MIC50 (Streptococcus pneumoniae [25]): 0.03 µg/mL (≈ 0.077 µM); MIC90 (Streptococcus pneumoniae [25]): 0.25 µg/mL (≈ 0.642 µM); MIC (Streptococcus pneumoniae [26]): 0.25 µg/mL (≈ 0.642 µM); MIC (Streptococcus pneumoniae [27]): 0.016 µg/mL (≈ 0.0411 µM); MIC (Streptococcus pneumoniae [28]): 0.25 µg/mL (≈ 0.642 µM); MIC (Streptococcus pneumoniae [29]): 0.25 µg/mL (≈ 0.642 µM); MIC50 (Streptococcus pneumoniae [30]): 0.03 µg/mL (≈ 0.077 µM); MIC90 (Streptococcus pneumoniae [30]): 0.06 µg/mL (≈ 0.154 µM); MIC (Streptococcus pneumoniae [31]): 1 µg/mL (≈ 2.57 µM); MIC (Streptococcus pneumoniae [32]): 0.5 µg/mL (≈ 1.28 µM); MIC (Streptococcus pneumoniae [33]): 0.06 µg/mL (≈ 0.154 µM) |
| COc1c(N2CC3(CC3)[C@](C)(N)C2)c(F)cc2c(=O)c(C(=O)O)cn([C@@H]3C[C@@H]3F)c12.O | 0.125 | 4 | 1 | 0.5 | 0.5 | 0.12 | 0.12 | 1 | 0.12 | 0.5 | 1 | 1 | 0.125 | 0.12 | 1 | 0.12 | 0.25 | 1 | 0.12 | 1 | MIC (Streptococcus pneumoniae [18]): 1 µg/mL; MIC (Streptococcus pneumoniae [19]): 1 µg/mL; MIC (Streptococcus pneumoniae [20]): 1 µg/mL; MIC (Streptococcus pneumoniae [21]): 0.12 µg/mL; MIC (Streptococcus pneumoniae [22]): 0.125 µg/mL; MIC (Streptococcus pneumoniae [23]): 0.5 µg/mL; MIC (Streptococcus pneumoniae [24]): 0.25 µg/mL; MIC50 (Streptococcus pneumoniae [25]): 0.12 µg/mL; MIC90 (Streptococcus pneumoniae [25]): 0.5 µg/mL; MIC (Streptococcus pneumoniae [26]): 1 µg/mL; MIC (Streptococcus pneumoniae [27]): 0.12 µg/mL; MIC (Streptococcus pneumoniae [28]): 0.5 µg/mL; MIC (Streptococcus pneumoniae [29]): 0.5 µg/mL; MIC50 (Streptococcus pneumoniae [30]): 0.12 µg/mL; MIC90 (Streptococcus pneumoniae [30]): 0.12 µg/mL; MIC (Streptococcus pneumoniae [31]): 0.5 µg/mL; MIC (Streptococcus pneumoniae [32]): 0.5 µg/mL; MIC (Streptococcus pneumoniae [33]): 0.125 µg/mL |
